# Results taken from US20150297573A1, “TPL2 KINASE INHIBITORS FOR PREVENTING OR TREATING DIABETES AND FOR PROMOTING Beta-CELL SURVIVAL” (INSERM (Institut National De La Santé Et De La Recherche …, priority 2012, published 2015).
# Like-named read-outs stand apart in the source and are kept apart here.
# Assays:
# [1] = system: INS-1E cells; details: Tpl2 inhibitor 5 μM, 24 h in conditioned medium of LPS-activated RAW264.7
# Protocol: RAW264.7 macrophages were maintained in DMEM containing 5% (vol/vol) heat-inactivated fetal bovine serum and antibiotics at 37° C. and 5% CO2/95% air atmosphere. RAW264.7 macrophages were incubated for 24 h with LPS (Lipopolysaccharide) (0.5 ng/ml), and the resulting conditioned medium was transferred onto INS-1E cells treated with or without Tpl2 inhibitor (5 μM). Lysates were subjected to Western blotting with antibodies against cleaved caspase-3 (1:1000), or HSP90 (1:1000). […] Data are expressed as ratio of cleaved caspase-3 on HSP90 protein amount, and as fold of cleaved caspase-3 over basal in cells in control culture medium without Tpl2 inhibitor treatment.
# [2] = system: ERK1/2; details: human islets; Tpl2 inhibitor 3 μM 2 h; cytokine mix 20 min
# Protocol: Human islets were isolated, cultured 24-72 h for recovery in CMRL medium containing 10% SVF, treated with KRBH buffer with or without Tpl2 inhibitor (3 μM) during 2 h and then stimulated or not with a cytokine mix (IL-1β (100 U/ml), TNF-α (500 U/ml), and IFNγ(100 U/ml)) for 20 min. Lysates were subjected to western blot analysis with antibodies against phosphorylated ERK1/2 (1:1000) or β-actin (1:2000). […] Data are expressed as ratio of phosphorylated ERK2 on β-actin amount and as a fold increase over basal in islets without treatment. Data are expressed as the means±SEM. *P<0.05, vs stimulus effect in control cells.
# Human pancreases were harvested from five brain-dead non-obese non-diabetic donors in agreement with the French Agence de la Biomedecine and the local Institutional Ethical Committee. […]
# Human islets were isolated, cultured 24-72 h for recovery in CMRL medium containing 10% SVF, treated with KRBH buffer with or without Tpl2 inhibitor (3 μM) during 2 h and then stimulated or not with a cytokine mix (IL-1β (100 U/ml), TNF-α (500 U/ml), and IFNγ (100 U/ml)) for 20 min. […] Data are expressed as ratio of phosphorylated ERK2 on b-actin amount and as a fold increase over basal in islets without treatment. Data are expressed as the means±SEM. *P<0.05, vs stimulus effect in control cells.
# [3] = system: INS-1E cells; test: Apoptosis of INS-1E cells (cleaved caspase-3 and cleaved PARP, Western blotting)
# Protocol: FIG. 5: Apoptotic effects of inflammatory cytokines in INS-1E cells and in mouse pancreatic islets under Tpl2 inhibition. A and C: INS-1E β-cells were treated in RPMI medium containing BSA 0.5% (A) or 7.5% SVF (C) with or without Tpl2 inhibitor (3 μM) during 2 h and then stimulated or not with Tpl2 inhibitor (3 μM) and IL-1β alone (20 ng/ml) for 48 h (A) or the cytokine mixture (IL-1β (0.2 μg/ml), TNFα (50 ng/ml), and IFNγ (30 ng/ml) for 24 h (C). Lysates were subjected to Western blotting with antibodies against cleaved caspase-3 (1:1000), total and cleaved PARP (1:1000) or β-actin (1:5000). Quantification of four to ten independent experiments is shown. Data are expressed as ratio of cleaved caspase-3 or cleaved PARP on β-actin protein amounts, and as fold of these proteins over basal in cells without treatment. Data are presented as the means±SEM. *P<0.05, **P<0.01, and ***P<0.001 vs stimulus effect in control cells. B: INS-1E β-cells were stimulated or not in RPMI medium containing SVF 7.5% with each cytokine alone or a mixture of the three (IL-1β (0.2 ng/ml), TNFα (50 ng/ml), or IFNγ(30 ng/ml) for 24 h. Lysates were subjected to Western blotting with antibodies against cleaved caspase-3 (1:1000) or β-actin (1:5000). Dotted line represents 100% of caspase-3 amount from untreated control cells. Quantification of four independent experiments is shown. Data are expressed as a percentage of cleaved caspase-3 protein amount in untreated cells (caspase-3/β-actin protein amount ratio). Data are presented as the means±SEM. *P<0.05, **P<0.01, and ***P<0.001 vs untreated control cells.
# [4] = system: db/db mice
# Protocol: FIG. 8: Effect of in vivo inhibition of Tpl2 on initial and body weights. Five-week-old db/db mice were obtained from Janvier Ltd and fed with a standard diet (4% fat) all over the study. All mice had free access to food and fresh water and were kept on a 12 h-day/12 h-night cycle. Body weights were recorded until the day of sacrifice prior to intraperitoneal (ip) administration of glucose, insulin or the daily injection of 2.5 mg/kg Tpl2 inhibitor or of the corresponding vehicle.
# FIG. 9: Effect of in vivo inhibition of Tpl2 on fasting glucose and plasma insulin levels. Five-week-old db/db mice were obtained from Janvier Ltd and fed with a standard diet (4% fat) all over the study. All mice had free access to food and fresh water and were kept on a 12 h-day/12 h-night cycle. Fast and blood glucose concentrations were determined with a (Verio Onetouch, Lifescan, Johnson and Johnson Company) glucometer using blood sampled from the tail vein on mice receiving daily injection of 2.5 mg/kg Tpl2 inhibitor or of the corresponding vehicle. Serum insulin levels were quantified by radioimmunoassay (RIA rat insulin kit, Millipore) using blood sampled from the tail vein on the first day of the study or jugular arteries the day of the sacrifice.
# (§1) FIG. 10: Effect of in vivo inhibition of Tpl2 on glucose tolerance and insulin tolerance. Five-week-old db/db mice were obtained from Janvier Ltd and fed with a standard diet (4% fat) all over the study. All mice had free access to food and fresh water and were kept on a 12 h-day/12 h-night cycle. Mice received daily injection of 2.5 mg/kg Tpl2 inhibitor or of the corresponding vehicle. Glucose tolerance tests were performed by ip administration of 1-2 g/kg glucose after a 16 h overnight fast and blood glucose concentrations were determined with a (Verio Onetouch, Lifescan, Johnson and Johnson Company) glucometer using blood sampled from the tail vein. Insulin tolerance tests were carried out in a similar manner following the ip administration of 0.75 U insulin per kg body weight to non-fasted mice.
# as §1, with “Five-week-old” for “FIG. 10: Effect of in vivo inhibition of Tpl2 on glucose tolerance and insulin tolerance. Five-week-old”, “Body weights were recorded until the day of sacrifice prior to intraperitoneal (ip) administration of glucose, insulin or the” for “Mice received”, “mice. Serum insulin levels were quantified by radioimmunoassay (RIA rat insulin kit, Millipore) using blood sampled from the tail vein on the first day of the study or jugular arteries the day of the sacrifice.” for “mice.”
# The progressive development of type 2 diabetes as observed in db/db mice is associated with increased body weight, insulin resistance, hyperglycemia and impaired glucose tolerance.
# [5] = system: p90RSK; test: p90RSK phosphorylation in INS-1E β-cells (Western blotting); format: cell-based, rat; details: INS-1E cells, Tpl2 inhibitor 3 μM
# Protocol: (§2) Quantification of three to five experiments is shown.
# (§3) The rat β-cell line INS-1E was provided by Dr. Maechler (Department of Cell Physiology and Metabolism, Faculty of Medicine, University of Geneva, Geneva, Switzerland). Cells (passages 60-95) were maintained in culture as monolayer at 37° C. in humidified atmosphere with 5% CO2, using RPMI 1640 medium containing 11.1 mM glucose, and supplemented with 7.5% heat-inactivated FCS, 1 mM sodium pyruvate, 10 mM HEPES, 2 mM glutamine, 50 μM β-mercaptoethanol, 100 U/ml penicillin, and 100 μg/ml streptomycin. Experiments were performed in INS-1E cells at ˜70% confluence in 6-well plates.
# (§4) Tpl2 expression was specifically silenced in INS-1E cells using a validated set of 4 different 19-nucleotides siRNA duplexes (“ON-TARGETplus SMARTpool”, L-091828-01-0005) purchased from Dharmacon (ABgene Ltd, part of Thermo Fisher Scientific, Waltham, Mass.). […] Briefly, groups of 500,000 INS-1E cells were maintained in culture in the absence of penicillin and streptomycin for 24 h before being transfected with 40 nM siRNA-Lipofectamine™ 2000 complexes prepared in Opti-MEM medium at a 2:1 ratio. Medium was replaced 6 h after transfection with fresh antibiotic-free RPMI medium supplemented with 7.5% heat-inactivated FCS. […] The transfection efficiency was assessed using the “siGLO Green Transfection Indicator”. […]
# [6] = system: ERK1/2; details: islets from C57BL/6 mice; Tpl2 inhibitor 3 μM; cytokine mix 20 min
# Protocol: (§5) 2D and 3B: 72 h after the first 40 nM siRNA transfection, INS-1E cells were treated or not, as described above. Phosphorylation and total protein amount were analyzed by Western blotting as described above. […] Data are expressed as ratio of phosphorylated on total protein amount and as fold of phosphorylation over basal in cells without treatment.
# [7] = system: p46/p54 c-Jun N-terminal kinases (JNK); details: INS-1E cells
# Protocol: as §5
# [8] = system: p90RSK; details: islets from C57BL/6 mice; Tpl2 inhibitor 3 μM; cytokine mix 20 min
# Protocol: as §5
# [9] = system: human pancreatic islets; test: Glucose-stimulated insulin secretion (stimulation index) of human islets exposed to cytokines; format: cell-based; details: Tpl2 inhibitor 3 μM, cytokine mix 72 h, stimulation index 20 mM/2.8 mM glucose
# Protocol: Human islets were treated in RPMI medium containing 0.2% human albumin with or without Tpl2 inhibitor (3 μM) and/or Exendin-4 (20 nM) during 2 h and then stimulated or not with Tpl2 inhibitor (3 μM), Exendin-4 (20 nM) and/or a cytokine mixture (IL-1β (1000 U/ml), TNF-α (1000 U/ml) and IFN-γ (1000 U/ml) for 72 h, and then submitted to a glucose-response test in KRB buffer. The stimulation index is defined as the ratio of stimulated (20 mM glucose) to basal (2.8 mM glucose) insulin secretion. Each column represents the mean±SEM of 5 replicates (each replicate corresponds to islets from one human donor). *P<0.05, **P<0.01, and ***P<0.001 vs cytokine effect in control cells.
# INS-1E cells, mouse (5-10 islets per condition) or human islets (500-2000 IEQ per condition) were preincubated at 37° C. during 2 h with or without Tpl2 inhibitor (3 μM) and Exendin-4 (20 nM), and then incubated for different times (0, 8, 16, 24, 36, 48 or 72 h) with or without Tpl2-inhibitor (3 μM), IL-1β alone (10000 U/ml, 20 μg/ml), a cytokine mix (IL-1β (100 U/ml, 0.2 ng/ml), TNF-α (500 U/ml, 50 ng/ml), and IFN-γ (100 U/ml, 30 ng/ml) for INS-1E cells and mouse islets; and IL-1β (1000 U/ml, 2 ng/ml), TNF-α (1000 U/ml, 28 ng/ml) and IFN-γ (1000 U/ml, 833 ng/ml) for human islets), and/or Exendin-4 (20 nM). […]
# [10] = system: isolated mouse islets; details: Tpl2 inhibitor 3 μM, cytokine mix 24 h
# Protocol: D: Isolated mouse islets were stimulated or not with a cytokine mix (IL-1β (1000 U/ml), TNF-α (1000 U/ml) and IFN-γ (1000 U/ml)) in RPMI medium for 24 h. The caspase-3/7 activity was measured using the “Caspase-Glo® 3/7 Assay”.
# Pancreatic islets were isolated from male 10- to 12-weeks-old C57BL/6 mice following the injection of approximately 2 ml of 1 mg/ml collagenase XI through the bile duct. The pancreases were then removed, incubated under agitation at 37° C. for 9 minutes to complete the digestion and the islets were separated from the exocrine pancreatic tissue using a Histopaque-1077 gradient. The islets were then washed in cold PBS supplemented with 1.2 mM CaCl2, 1 mM MgCl2, and 5.6 mM glucose, handpicked under microscope, separated in groups composed of 200-300 islets and maintained in culture at 37° C. (95% air and 5% CO2) in RPMI 1640 containing 11.1 mM glucose and supplemented with 10% FCS, 2 mM glutamine, 100 units/ml penicillin and 100 μg/ml streptomycin for at least 24 h before being used.
# [11] = system: MEK, MK2, Src, protein kinase C, and EGF receptor; details: cited from earlier work
# [12] = system: p38; test: p38 phosphorylation in INS-1E β-cells (Western blotting); format: cell-based, rat; details: INS-1E cells
# Protocol: as §2
# Tpl2 expression was specifically silenced in INS-1E cells using a validated set of 4 different 19-nucleotides siRNA duplexes (“ON-TARGETplus SMARTpool”, L-091828-01-0005) purchased from Dharmacon (ABgene Ltd, part of Thermo Fisher Scientific, Waltham, Mass.). […] Briefly, groups of 500,000 INS-1E cells were maintained in culture in the absence of penicillin and streptomycin for 24 h before being transfected with 40 nM siRNA-Lipofectamine™ 2000 complexes prepared in Opti-MEM medium at a 2:1 ratio. Medium was replaced 6 h after transfection with fresh antibiotic-free RPMI medium supplemented with 7.5% heat-inactivated FCS. A second transfection was performed 24 h after the first one to improve the transfection efficiency. The transfection efficiency was assessed using the “siGLO Green Transfection Indicator”. All assays were performed at least 50 h after the first transfection.
# Proteins were visualized by enhanced chemiluminescence detection.
# [13] = system: ERK1/2; test: ERK1/2 phosphorylation in INS-1E β-cells (Western blotting); format: cell-based, rat; details: INS-1E cells, Tpl2 inhibitor 3 μM
# Protocol: as §2, §3, §4
# [14] = INS-1E cells, Tpl2 inhibitor 3 μM, IL-1β 20 ng/ml 48 h
# [15] = INS-1E cells, Tpl2 inhibitor 3 μM, cytokine mix 24 h
compound,measurement,setting,value
"N#Cc1cnc2cnc(NCc3cccnc3)cc2c1Nc1ccc(F)c(Cl)c1 [Tpl2 inhibitor, 4-(3-Chloro-4-fluorophenylamino)-6-(pyridine-3-yl-methylamino)-3-cyano-[1,7]napthyridine]",decrease of cleaved caspase-3 induced by macrophage conditioned medium,[1],around 55%
same,inhibition of phosphorylation/activation of ERK1/2 induced by the cytokine mixture,[2],significantly efficient at inhibiting
same,decrease in cleaved PARP level induced by IL-1β,[3]; [14],~30%
same,decrease in cleaved caspase-3 level induced by IL-1β,[3]; [14],~45%
same,decrease in cleaved PARP level induced by the mixture of cytokines,[3]; [15],~25%
same,decrease in cleaved caspase-3 level induced by the mixture of cytokines,[3]; [15],~30%
same,INS-1E cell apoptosis with Tpl2 inhibitor alone,"[3]; long term treatment, 3 μM, no cytokine",did not increase
same,body weights vs vehicle-treated db/db mice,"[4]; 2.5 mg/kg daily ip, 2 weeks",not different
same,tolerance to glucose challenges,"[4]; 2.5 mg/kg daily ip, after 7 days",significantly improved
same,insulin sensitivity (insulin tolerance test),"[4]; 2.5 mg/kg daily ip, after 14 days",significant improvement
same,serum insulin level at fast,"[4]; 2.5 mg/kg daily ip, day 14, vehicle 11.3±1.2",4.3 ± 0.4 ng/mL
same,blood glucose concentration at fast,"[4]; 2.5 mg/kg daily ip, day 14, vehicle 258.6±40.7",144.0 ± 15.5 mg/dL
same,toxicity,"[4]; daily ip 2.5 mg/kg, 2 weeks",not toxic
same,inhibition of IL-1β-induced p90RSK phosphorylation,"[5]; IL-1β 20 ng/ml 20 min, same extent as ERK1/2 (60%)",inhibited to the same extent
same,inhibition of cytokine-induced p90RSK phosphorylation,"[5]; cytokine mix 20 min, same extent as ERK1/2 (50-60%)",inhibited to the same extent
same,inhibition of cytokine-stimulated ERK1/2 phosphorylation,[6],efficient at inhibiting
same,effect on IL-1β-induced p46/p54 JNK phosphorylation,[7]; 3 μM,no effect
same,effect on IL-1β-induced p46/p54 JNK phosphorylation,[7]; 10 μM (data not shown),no effect
same,inhibition of cytokine-stimulated p90RSK phosphorylation,[8],efficient at inhibiting
same,prevention of cytokine-induced insulin secretion failure,[9],~50%
same,decrease of caspase-3/7 activity induced by the mixture of cytokines,[10],~50%
same,inhibition or activation of other protein kinases,[11]; concentration <5 μM that prevents activation of the ERK1/2 cascade,No other protein kinase has been found to be inhibited or activated
same,"selectivity over other related kinases (MEK, MK2, Src, protein kinase C, EGF receptor)",[11]; concentrations below 5 μM,significant selectivity
same,effect on IL-1β-induced p38 phosphorylation,[12]; 3 μM,no effect
same,effect on IL-1β-induced p38 phosphorylation,[12]; 10 μM (data not shown),no effect
same,suppression of IL-1β-induced ERK1/2 phosphorylation,"[13]; 2 h, IL-1β 20 ng/ml 20 min",60%
same,suppression of cytokine-induced ERK1/2 phosphorylation,[13]; cytokine mix IL-1β+TNF-α+IFN-γ 20 min,50-60%
